Experimental findings from patent US20250154115A1, “ARYLBENZOISOXAZOLE COMPOUNDS AS IP6K AND IPMK INHIBITORS AND METHODS OF USE THEREOF” (THE UNIVERSITY OF NORTH CAROLINA AT CHAPEL HILL, priority 2022, published 2025) are described below.

Common to all, as to assay type: biochemical
Common to all, as to conditions: enzyme-coupled assay

In one experiment the target is IP6K1 (Homo sapiens (Human), UniProt Q92551). The experiment can be described thus: Enzyme-coupled assay of IP6K1 activity (Dipp1-coupled, malachite green Pi release). The protocol: (§1) […] The cells were disrupted using a constant cell disruption system (Constant Systems) under 20 kPsi.
Sequence of IP6K1 (Q92551 whole entry): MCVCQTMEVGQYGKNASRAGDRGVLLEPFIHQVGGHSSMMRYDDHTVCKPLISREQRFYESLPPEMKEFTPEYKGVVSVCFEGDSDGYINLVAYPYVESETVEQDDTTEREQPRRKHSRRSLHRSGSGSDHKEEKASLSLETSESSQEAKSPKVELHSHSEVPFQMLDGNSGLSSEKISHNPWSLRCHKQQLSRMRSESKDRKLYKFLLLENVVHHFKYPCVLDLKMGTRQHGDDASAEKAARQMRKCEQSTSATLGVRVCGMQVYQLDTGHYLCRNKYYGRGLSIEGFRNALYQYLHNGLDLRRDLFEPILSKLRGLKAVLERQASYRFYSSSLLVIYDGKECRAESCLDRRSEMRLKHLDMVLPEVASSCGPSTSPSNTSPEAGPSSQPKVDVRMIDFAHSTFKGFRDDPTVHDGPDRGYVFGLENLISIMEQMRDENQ
(§2) Pi release was determined with a malachite green colorimetric assay.^45 Where indicated, TNP (Cayman Chemical) was added to the assays (FIG. 2A-E).

Another experiment has as its target IP6K2 (Homo sapiens (Human), UniProt Q9UHH9). As to the kind of experiment: Enzyme-coupled assay of IP6K2 activity (Dipp1-coupled, malachite green Pi release). The protocol:
as §1, §2

The next experiment has as its target IP6K3 (Homo sapiens (Human), UniProt Q96PC2). As to the kind of experiment: Enzyme-coupled assay of IP6K3 activity (Dipp1-coupled, malachite green Pi release).
Another experiment concerns the target IPMK (Homo sapiens (Human), UniProt Q8NFU5). As to the kind of experiment: Enzyme-coupled assay, IPMK IC50.

Sequence of IPMK (Q8NFU5 whole entry, species assumed): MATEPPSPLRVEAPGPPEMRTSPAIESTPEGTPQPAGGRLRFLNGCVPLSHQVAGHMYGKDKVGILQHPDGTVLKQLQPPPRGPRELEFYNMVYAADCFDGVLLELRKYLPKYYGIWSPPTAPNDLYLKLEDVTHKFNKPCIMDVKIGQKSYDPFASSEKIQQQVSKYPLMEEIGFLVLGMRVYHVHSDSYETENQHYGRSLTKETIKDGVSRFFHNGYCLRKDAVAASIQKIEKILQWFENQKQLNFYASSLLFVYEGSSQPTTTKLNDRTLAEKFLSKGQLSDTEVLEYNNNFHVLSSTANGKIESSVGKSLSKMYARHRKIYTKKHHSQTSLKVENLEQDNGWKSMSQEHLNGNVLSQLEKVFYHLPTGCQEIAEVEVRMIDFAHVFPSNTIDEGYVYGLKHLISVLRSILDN
Sequence of IP6K3 (Q96PC2 whole entry): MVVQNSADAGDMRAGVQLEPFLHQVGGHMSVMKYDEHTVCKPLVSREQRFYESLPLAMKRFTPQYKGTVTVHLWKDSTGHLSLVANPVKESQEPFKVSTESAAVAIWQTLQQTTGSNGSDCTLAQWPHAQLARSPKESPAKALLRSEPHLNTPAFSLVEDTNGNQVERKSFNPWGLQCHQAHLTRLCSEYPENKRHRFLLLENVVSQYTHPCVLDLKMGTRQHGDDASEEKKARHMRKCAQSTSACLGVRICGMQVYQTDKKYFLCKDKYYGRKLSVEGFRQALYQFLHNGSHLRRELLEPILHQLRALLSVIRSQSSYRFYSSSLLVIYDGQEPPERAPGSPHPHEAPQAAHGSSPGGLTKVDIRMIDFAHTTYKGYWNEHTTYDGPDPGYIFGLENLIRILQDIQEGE
Sequence of IP6K2 (Q9UHH9 whole entry): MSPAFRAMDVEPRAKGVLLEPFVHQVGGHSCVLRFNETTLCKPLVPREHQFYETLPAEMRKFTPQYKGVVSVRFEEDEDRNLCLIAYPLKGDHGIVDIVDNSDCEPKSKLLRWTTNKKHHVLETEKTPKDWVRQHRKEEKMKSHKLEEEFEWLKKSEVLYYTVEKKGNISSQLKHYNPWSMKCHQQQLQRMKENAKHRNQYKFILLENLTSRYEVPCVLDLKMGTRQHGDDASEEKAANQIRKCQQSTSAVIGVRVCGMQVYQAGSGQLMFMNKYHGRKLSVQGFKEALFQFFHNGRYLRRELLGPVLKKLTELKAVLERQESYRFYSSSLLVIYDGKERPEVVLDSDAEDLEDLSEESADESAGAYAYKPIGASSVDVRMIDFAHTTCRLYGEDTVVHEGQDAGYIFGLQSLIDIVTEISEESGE

As for `FC(F)(F)Oc1ccc(-c2onc3ccc(-c4nnn[nH]4)cc23)cc1` [Compound 66], the IC50 against IP6K1 (Table 4) was in the range of 10 to 100 nM; against IP6K2 (Table 4) it was 10 to 100 nM; at IP6K3 (Table 4) it was 100 to 1000 nM; against IPMK (Table 4), 10 to 100 nM.

`CC(C)C(=O)Nc1ccc(-c2onc3ccc(C(=O)O)cc23)cc1` [Compound 36]: the results for the 50% inhibitory concentration (IC50) against IP6K2 (Table 2), on IP6K3 (Table 2) and against IPMK (Table 2) were 100 to 1000 nM, 100 to 1000 nM and 1000 to 100000 nM, respectively.

With `O=C(O)c1ccc2noc(-c3ccc(C(=O)NCCC4CC4)cc3)c2c1` [Compound 39], the IC50 against IP6K1 (Table 2), against IP6K2 (Table 2), against IP6K3 (Table 2) and at IPMK (Table 2) was 100 to 1000 nM in each case.

Consider `c1ccc(-c2onc3ccc(-n4cncn4)cc23)cc1` [Compound 61], for which the IC50 on IP6K1 (Table 4) lay in the range of 1000 to 100000 nM; at IP6K2 (Table 4), 1000 to 100000 nM; against IP6K3 (Table 4), 1000 to 100000 nM; at IPMK (Table 4), 10 to 100 nM.

Take `c1cncc(-c2ccc(-c3onc4ccc(-c5nnn[nH]5)cc34)cc2)c1` [Compound 69]: the IC50 is 10 to 100 nM against IP6K1 (Table 4), 10 to 100 nM at IP6K2 (Table 4), 100 to 1000 nM against IP6K3 (Table 4) and < 10 nM on IPMK (Table 4).

With `Clc1ccc(-c2onc3ccc(-c4nnn[nH]4)cc23)cc1Cl` [Compound 67], the IC50 is 10 to 100 nM at IP6K1 (Table 4), 100 to 1000 nM at IP6K2 (Table 4), 100 to 1000 nM at IP6K3 (Table 4) and 10 to 100 nM at IPMK (Table 4).

Take `CNC(=O)c1ccc2noc(-c3ccc(-c4ccccc4)cc3)c2c1` [Compound 26]: the IC50 on IP6K1 (Table 2) lay in the range of 10 to 100 nM; at IP6K2 (Table 2), 100 to 1000 nM; on IP6K3 (Table 2) it was 100 to 1000 nM; on IPMK (Table 2), 10 to 100 nM.

With `c1ccc(Oc2ccc(-c3onc4ccc(-c5nnn[nH]5)cc34)cc2)cc1` [Compound 70], the IC50 is 1000 to 100000 nM at IP6K1 (Table 4), 100 to 1000 nM at IP6K2 (Table 4), 100 to 1000 nM against IP6K3 (Table 4) and < 10 nM against IPMK (Table 4).

In the case of `c1ccc(-c2ccc(-c3onc4ccc(-c5nnn[nH]5)cc34)cc2)cc1` [Compound 68], the IC50 at IP6K1 (Table 4) was in the range of 10 to 100 nM; at IP6K2 (Table 4), 10 to 100 nM; at IP6K3 (Table 4) it was 100 to 1000 nM.

Regarding `Fc1ccc(-c2onc3ccc(-c4nnn[nH]4)cc23)cc1` [Compound 63], the IC50 at IP6K1 (Table 4) lay within 10 to 100 nM; against IP6K2 (Table 4) it was 10 to 100 nM; against IP6K3 (Table 4), 100 to 1000 nM; at IPMK (Table 4), 10 to 100 nM.

With `c1cc(OCCN2CCOCC2)cc(-c2onc3ccc(-c4nnn[nH]4)cc23)c1` [Compound 83], the IC50 at IP6K1 (Table 4) fell in the range of 10 to 100 nM; at IP6K2 (Table 4) it was 100 to 1000 nM; against IP6K3 (Table 4) it was 100 to 1000 nM; at IPMK (Table 4) it was 10 to 100 nM.

As to `Clc1ccccc1-c1onc2ccc(-c3nnn[nH]3)cc12` [Compound 76], the concentration for half-maximal inhibition (IC50) at IP6K1 (Table 4) was 10 to 100 nM; against IP6K2 (Table 4), 10 to 100 nM; on IP6K3 (Table 4), 100 to 1000 nM; on IPMK (Table 4), < 10 nM.

With `Cc1cc(C)cc(-c2onc3ccc([C@@H]4C[C@H]4C(=O)O)cc23)c1` [Compound 17], the IC50 on IP6K1 (Table 1) fell in the range of 10 to 100 nM; against IP6K2 (Table 1), 10 to 100 nM; against IP6K3 (Table 1) it was 1000 to 100000 nM.

`CC(C)NC(=O)c1ccc2noc(-c3ccccc3)c2c1` [Compound 22]: the IC50 on IP6K1 (Table 2) fell in the range of 1000 to 100000 nM; against IP6K2 (Table 2) it was 100 to 1000 nM; against IP6K3 (Table 2) it was 1000 to 100000 nM. For the same compound, at IPMK (Table 2), the “IPMK IC50” value is on record as “−”.

As to `O=C(O)c1ccc2noc(-c3ccc(NC(=O)C4CC4)cc3)c2c1` [Compound 35], the IC50 fell in the range of 1000 to 100000 nM at IP6K1 (Table 2), 1000 to 100000 nM against IP6K2 (Table 2), 100 to 1000 nM on IP6K3 (Table 2) and 1000 to 100000 nM at IPMK (Table 2).

Turning to `CN(C)CCOc1ccc(-c2onc3ccc(-c4nnn[nH]4)cc23)cc1` [Compound 79], the IC50 on IP6K1 (Table 4) lay within 100 to 1000 nM; at IP6K2 (Table 4), 100 to 1000 nM; against IP6K3 (Table 4) it was 100 to 1000 nM; on IPMK (Table 4), 1000 to 100000 nM.

Consider `O=C(O)c1ccc2noc(-c3cccc(NC(=O)C4CC4)c3)c2c1` [Compound 42], for which the IC50 was 1000 to 100000 nM against IP6K3 (Table 2) and 10 to 100 nM on IPMK (Table 2).

As for `CC(C)(C)OC(=O)N1CCC(Oc2cccc(-c3onc4ccc(-c5nnn[nH]5)cc34)c2)CC1` [Compound 81, tert-butyl 4-(3-(5-(1H-tetrazol-5-yl)benzo[c]isoxazol-3-yl)phenoxy)piperidine-1-carboxylate], the figures for the IC50 against IP6K2 (Table 4), against IP6K3 (Table 4) and against IPMK (Table 4) were […], […] and […], respectively.

For the compound `O=C(O)c1ccc2noc(-c3ccc(Oc4ncc(Cl)cc4Cl)cc3)c2c1` [Compound 28], the IC50 is 100 to 1000 nM against IP6K1 (Table 2), 1000 to 100000 nM at IP6K3 (Table 2) and 1000 to 100000 nM against IPMK (Table 2).

Take `O=C(O)c1ccc2noc(-c3ccc(-c4ccncc4)cc3)c2c1` [Compound 58]: the IC50 against IP6K3 (Table 3) is 100 to 1000 nM; at IPMK (Table 3), 10 to 100 nM.

Turning to `Cc1cc(C)cc(-c2onc3ccc(C(=O)O)cc23)c1` [Compound 19], the IC50 on IP6K3 (Table 2) was in the range of 1000 to 100000 nM; against IPMK (Table 2), 100 to 1000 nM.

Broadly, the IC50 is the midpoint of a concentration-inhibition curve. Read a low IC50 as inhibition by little substance.
